Data: US12605541B2, “Stabilized anti-cancer cold atmospheric plasma (CAP)-stimulated media and methods for preparing and using same” (The George Washington University, priority 2015, dated 2026)
Where two headings read alike, the source gives them in different places.

Columns and labels:
[1] = for effect of the appearance of the component in DMEM on H2O2 during storage: 3 days of storage at −25° C., FIG. 5d; for effect of the presence of the component in DMEM on H202 in PSM during storage: three days of storage at 8° C., FIG. 3b; for effect of the component on H2O2 in CAP-stimulated PBS during storage: at 8° C. (FIG. 3a) (so in the source)
Protocol: The general research strategy described herein is illustrated in FIG. 1b. I mL of PSM was made by the vertical irradiation on the medium in a well on a 12-well plate. Then, the PSM was transferred to a 1.5 mL centrifuge tube by pipette. The centrifuge tubes were stored in refrigerators with different internal temperatures (8° C. and −25° C.) for 3 days. Additionally, some centrifuge tubes were stored at 22° C., for the investigation of PSM degradation at room temperature. Ultimately, the PSM was either transferred to culture the seeded cancer cells in a 96-well plate or transferred into a black wall 96-well plate to measure for H2O2 concentration. Because PBS is not suitable for cell culture, the protocols used to transfer the CAP-stimulated PBS are slightly different from those used to transfer the CAP-stimulated DMEM.
The protocols to prepare PSM are the same among different experiments. 1 mL of PBS or DMEM (or modified DMEM, such as cysteine/methionine-free DMEM) in a well on a Coming™ Falcon™ 12-well plate was treated by CAP for 1 or 2 minutes. The gap between the end of dielectric plasma tube and the bottom of 12-well plate was 3 cm.
H2O2 containing PBS and H2O2 containing DMEM were prepared by adding 30 wt¾ H2O2 solution to PBS and DMEM, respectively.
The amino acid(s) containing PBS, calcium containing PBS, magnesium containing PBS, glucose containing PBS, phenol red containing PBS, and amino acid(s) containing DMEM were prepared by adding and dissolving specific amino acid(s), calcium chloride solution, magnesium chloride solution, D-glucose, phenol red solution or an amino acid derivative (such as 3-nitro-L-tyrosine) in PBS and DMEM, respectively. With the exception of PBS and DMEM, the added components were purchased from Sigma Aldrich.
50 μL of CAP-stimulated medium or PBS to be analyzed for H2O2 concentration was transferred to a well on a black-wall Coming™ Falcon™ 96-well clear bottom plate in triplicate. Subsequently, according to standard protocols provided by Sigma Aldrich (St. Louis, MO), the H2O2 concentration in the cold plasma-stimulated medium was measured as follows. First, 50 μL of red peroxidase substrate stock solution, 200 μL of peroxidase stock solution, and 4.75 ml of assay buffer were mixed to prepare H2O2 probe solution. 50 μL of probe solution was then added in the black 96-well plate and mixed with 50 μL of the CAP-stimulated medium or PBS. After 30 min of storage at the room temperature, with protecting from light, a Hybrid Technology HI microplate reader (BioTek Instruments, Winooski, VT) was used to measure the fluorescence with an excitation wavelength at 540 nm and an emission wavelength at 590 nm. The final measured fluorescent strength of the experimental group was obtained by deducting the measured fluorescence of the control group from the measured fluorescence of the experimental group. The standard H202 solution was used to prepare the standard H202 concentration-fluorescence curve. Based on this standard curve, we obtained the H202 concentration in CAP-stimulated medium or PBS. The triplicate experiments were independently repeated for three times

[2] = system: MDA-MB-231 cells; test: MTT cell viability of breast cancer cells cultured in CAP-stimulated media; type: cell-based, human; settings: CAP treatment time 2 minutes, storage at −25° C. for 3 days, FIG. 5e
Protocol: All DMEM and PBS were mixed with 1% (v/v) antibiotic (penicillin and streptomycin) (Thermo Fisher Scientific) before any experiments were performed. […] All cancer cell lines were seeded with a confluence of 3×10^4 cells/mL and a volume of 100 μL in each well on a 96-well plate and were cultured for 6 hours in a complete media composed of Dulbecco's modified Eagle's medium supplemented with 10% (v/v) fetal bovine serum (Thermo Fisher Scientific). and 1% (v/v) antibiotic (penicillin and streptomycin) solution under standard cell culture conditions (a humidified, 37° C., 5% CO2 environment). In each experiment, 6 wells in a single column on the 96-well plate were seeded with cancer cells.
First, the initial culture medium which had been cultured cells for 6 hours was removed before this step. […] In each experiment, 6 wells in a single column on the 96-well plate were seeded with cancer cells. […]
The cancer cells in the 96-well plates were cultured in the 96-well plate under standard cell culture conditions (a humidified, 37° C., 5% CO2 environment) for 3 days. […] The 96-well plate filled with hydrochloric acid containing isopropanol solution was then read by a Hybrid Technology HI microplate reader (BioTek Instruments, Winooski, VT) at a 570 nm of absorbance. […] The average value of measured cell viability from 6 wells was regarded as the cell viability measured from one independent experiment. […]

Structure (SMILES) | effect of the component on H2O2 degradation in CAP-stimulated PBS during freezing storage [1] | effect of the component on H202 degradation in CAP-stimulated PBS-based solution [1] | effect of the appearance of the component in DMEM on H2O2 during storage [1] | effect of the presence of the component in DMEM on H202 in PSM during storage [1] | effect of the appearance of the component in DMEM on the anti-cancer capacity of PSM [2] | effect of the component on H2O2 in CAP-stimulated PBS during storage [1] | effect of the component on H2O2 degradation in CAP-stimulated PBS during freezing storage ([1]; storage at −25° C., FIG. 5c)
N[C@@H](CS)C(=O)O [cysteine] | two most reactive components | most significant degradation | complete consumption of H2O2 | noticeable H202 degradation | significantly aggravates the degradation | – | –
NCCCC[C@H](N)C(=O)O [lysine] | – | – | – | – | – | inhibit the degradation | aggravate the degradation
CSCC[C@H](N)C(=O)O [methionine] | two most reactive components | most significant degradation | complete consumption of H2O2 | noticeable H202 degradation | significantly aggravates the degradation | – | –
N[C@@H](Cc1c[nH]c2ccccc12)C(=O)O [tryptophan] | aggravate the degradation | – | – | – | – | inhibit the degradation | –

The next lines start with results.

effect of the component on H2O2 degradation in CAP-stimulated PBS during freezing storage [1] | effect of the component on H202 degradation in CAP-stimulated PBS-based solution [1] | effect of the appearance of the component in DMEM on H2O2 during storage [1] | effect of the presence of the component in DMEM on H202 in PSM during storage [1] | Structure (SMILES) | effect of the appearance of the component in DMEM on the anti-cancer capacity of PSM [2] | effect of the component on H2O2 in CAP-stimulated PBS during storage [1] | effect of the component on H2O2 degradation in CAP-stimulated PBS during freezing storage ([1]; storage at −25° C., FIG. 5c)
– | noticeable degradation | – | – | N[C@@H](Cc1ccccc1)C(=O)O [phenylalanine] | – | noticeable H2O2 degradation | –
aggravate the degradation | – | – | – | N[C@@H](Cc1ccc(O)cc1)C(=O)O [tyrosine] | – | – | –
